The values below are quoted from earlier work in patent US20110136157A1, “Copper regulation evaluation and therapy” (priority 2005, published 2011).

Series [1] deals with Wilson's disease patients. To be noted: long-term use.

Where two headings read alike, the source gives them in different places.

Take `CC(C)(S)[C@@H](N)C(=O)O` [Penicillamine, 3-mercapto-D-valine]: the solubility entry is recorded as “slightly soluble in alcohol” (alcohol) and “freely soluble in water” (water).
Turning to `CC(=O)[O-].CC(=O)[O-].[Zn+2]` [Zinc acetate], the “long-term or major side effects” value in series [1] was “has not shown any long-term or major side effects”.
